Series [1] concerns the target T1, Cx43 CT (amino acids 255 to 382) (Rattus norvegicus, UniProt P08050).
T1 construct: Cx43-CT: amino acids 255 to 382; GST (N, cleaved yes); made in house; host or cells: E. coli BL21
The series is described as follows: Surface plasmon resonance, Cx43 CT analyte. It counts as binding. Particulars: biotin-peptide immobilized on streptavidin chip; analyte 0.5 to 15 μM. Here is the method:
Efficacy of the interaction of each alpha CT1 variant with Cx43 CT or Cx43 CT-KK/QQ was tested using surface plasmon resonance (SPR) as described previously 20. In brief, SPR experiments were performed using a Biacore T200 (GE Healthcare). Equal amounts (response units/RU) of biotin-alpha CT1 variants were immobilized on each flow cell of a streptavidin-coated sensor chip (Biacore Inc) using immobilization buffer (in mM: 10 HEPES, 1 EDTA, 100 NaCl, 0.005% Tween-20) at pH 7.4. Measurements with wild-type (wt) Cx43 CT and mutant Cx43 CT-KK/QQ analytes were done in running buffer (in mM: 10 HEPES, 100 NaCl, pH 7.4) at a flow rate of 30 μl/min. Binding of analytes were verified at different concentrations, in random order (injection volume 120 μl). Interacting proteins were then unbound by injection of […] regeneration buffer (50 mM NaOH and 1 M NaCl) at a flow rate of 10 μl/min. Background levels were obtained from a reference cell containing a biotin-control peptide in which the reversed sequence of the last 9 amino acids of Cx43 was fused to biotin-antennapedia. The RU values obtained with biotin-control peptide were subtracted from the RU values obtained with the different biotin-alphaCT1 variants (wild-type or mutant) to generate the different response curves.

The test system of series [2] is Neonatal cardiac fibroblasts (NHFs). Nature of the series: Collagen synthesis by neonatal cardiac fibroblasts, Western blotting. It is filed as cell-based, rat. From the text:
Isolation and treatment of Neonatal Cardiac Fibroblasts with Cx43 based peptides (peptides used included ACT1, JM1, JM2, Antennapedia [ANT], reverse ACT1 [Rev], poly Arginine [poly r]). Said peptides with and without internalization vectors can be loaded into the provided EVs and can elicit results similar to those observed for naked peptide as follows. Neonatal cardiac fibroblasts (NHFs) were isolated from 3-4 day old rat hearts by collagenase digestion (100 U/mL) and differential attachment as previously described (Borg et ah, 1984). All cells were maintained in Dulbecco's Modified Eagle Medium (DMEM) supplemented with 10% Fetal Bovine Serum and 100 U/mL penicillin G and 100 μg/mL streptomycin and used prior to passage four. For experiments, 40,000 NHFs were plated into the wells of a 24-well tissue culture plate and grown for 24-48 hours. On the day of treatment, media was removed from each well and replaced with fresh media containing 50 μg/mL L-ascorbic acid-2-phosphate; Sigma Chemical Co., St. Louis, MO). The appropriate volume of each peptide (resuspended in sterile, deionized 18 MQ resistivity water) was added to achieve the desired final concentration (30, 90, 180 µM peptide concentrations were tested). Culture plates were incubated overnight in a 37° C. incubator with 5% C02.
Protein Isolation and Examination of Collagen Synthesis by Western Blotting. Conditioned culture media was collected from each well and stored at −20° C. for analysis of soluble collagen. Cellular protein, including insoluble collagen and collagen still within the NHFs, were isolated by adding 100-200 μL, of cell lysis buffer (0.01 M Tris, pH 7.4, 0.001 M Sodium Orthovanadate, 1% sodium dodecylsulfate [SDS]) to each well and incubating 10 minutes at room temperature. Prior to addition, cell lysis buffer was warmed to facilitate solubilization of SDS and 100 u L of Halt protease inhibitor (Pierce Biotechnology, Rockford, IL) was added per 10 mL buffer to be used. After incubation, the well bottoms were scraped and liquid transferred to a microcentrifuge tube for storage at −20° C. Protein concentrations of cell lysates were determined using a Micro BCA assay (Pierce). SDS-PAGE samples were prepared by combining either 10 μg of cell lysate or 30 μL of conditioned media with XT loading buffer (BioRad, Hercules, CA), dithiothreitol and boiled for five minutes. Samples were loaded onto 3-8% Tris-Acetate Criterion X T gels (BioRad, Hercules, CA) and proteins separated at 140V. After electrophoresis, proteins were transferred onto […] nitrocellulose membranes (BioRad) overnight at room temperature (Transfer buffer: 25 mM Tris, 192 mM Glycine, 20% Methanol, 0.01% SDS). The presence of collagen was determined by probing the membranes with a rabbit anti-mouse collagen type I antibody (MD Biosciences) at 1:20,000 dilution in blocking buffer (5% milk in Tris-buffered saline) followed by a goat anti-rabbit IgG horseradish peroxidase conjugated antibody at 1:100,000 (Southern Biotech Associates) and detection with Pierce SuperSignal Femto West detection reagent (Pierce). To assess the activity of JM1 and JM2 peptides with respect to collagen production and their potential in mediating wound healing, cardiac fibroblasts were treated with these two peptides and their effectiveness compared to that for the previous described Cx43 peptide ACT1. NHFs were treated with various concentrations of JM1, JM2, ACT1, and ANT (Antennapedia) peptides, vehicle (water) or left untreated and the production of collagen both in the culture media and cell-associated collagen assessed by western blotting. […] To evaluate the impact of the poly-Arginine (poly-r)N-terminal sequence on JM1 and Jm2 activity, NHF cells were treated with a poly-r peptide.

For series [3], the system named is 8 mm wide circular excisional skin injuries. Particulars: 100 μM in 30% pluronic gel; 10-14 day time course; cited from earlier work.
The subject of series [4] is heart allograft. Particulars: 100 μM in UW solution, cited from earlier work.
The target in series [5] is T2, PKC-ε phosphorylation of Cx43-CT substrate at Ser368 (Rattus norvegicus, UniProt P08050).
T2 construct: substrate (Cx43-CT: amino acids 255 to 382); GST (N); made in house; host or cells: E. coli BL21 (Cx43 CT); PKC-ε purchased (Life, 37717L)
Particulars: purified PKC enzyme and Cx43 CT substrate; cited from earlier work.

The test system of series [6] is cancer stem cells CSCs. As to conditions: CSCs derived from patient tumors; cited from earlier work.
For series [7], the system named is Cx43-HeLa. It counts as cell-based. Here is the method:
The first tests of JM1 and JM2 were performed and the experiments centered on the basic cell biology of the peptides.

T1 sequence (P08050 255-382): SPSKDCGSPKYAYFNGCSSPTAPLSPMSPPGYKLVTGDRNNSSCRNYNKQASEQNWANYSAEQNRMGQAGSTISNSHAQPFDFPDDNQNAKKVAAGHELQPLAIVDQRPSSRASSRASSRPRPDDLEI
T2 sequence (P08050 255-382): as above

As to “RQPKIWFPNRRKPWKK RPRPAALAI (RQPKIWFPNRRKPWKKRPRPAALAI) [M1 AALAI]”, in series [1], the “SPR binding to Cx43 CT” value is given as “loss of Cx43 CT binding competence”.

As to RQPKIWFPNRRKPWKKRPRPDDLAI [M3 DDLAI], the “SPR binding to Cx43 CT” value in series [1] is listed as “abrogated peptide interaction with Cx43 CT”.

For the sequence RQPKIWFPNRRKPWKKRPRPDDLEI [alpha CT1], in series [2] (30, 90, 180 µM), the “mature type I collagen in conditioned media” value is “dose-dependent reduction in the secretion of mature, fully processed collagen”. Moreover, in series [3], the “healing of excisional injuries” value is “closed faster, were less inflamed in appearance, healed faster and scarred less”. Moreover, in series [4] (6 h at 4° C., 30 mins post reperfusion), the “Evan's Blue sequestration into the transplanted heart” value is listed as “significantly reduces Evan's Blue sequestration into the transplanted heart”. Moreover, the “graft injury, serum cardiac troponin I, neutrophils” value in series [4] (6 hrs at 4° C.) was “significantly reduced cardiac injury, reduced serum cardiac troponin I and significantly reduced neutrophils”. In addition, the “S368 phosphorylation in vitro” value in series [5] was “promoted S368 phosphorylation in vitro in a dose-dependent manner”.

For the sequence VFFKGVKDRVKGRSD [JM2], the “mature type I collagen in conditioned media” value is “no mature type I collagen was detected” in series [2] (180 μM) and “dose-dependent decrease in the production of mature, type I collagen” in series [2] (30, 90, 180 µM). Besides, the “collagen produced versus poly-r peptide” value in series [2] (about 90 μM) is given as “less than half of that produced by cells treated with the poly-r peptide”. In addition, the “mature type I collagen in cell lysate” value in series [2] (versus ACT1 peptide) is recorded as “more profound reduction in the amount of mature type I collagen”. In series [6], the CSC survival entry was “decreases CSC survival in vitro and in vivo”. In series [7], the “toxicity (cell death)” value is “no obvious toxicity”. In addition, the confluence result in series [7] (24 hours) is recorded as “more confluent than control cells”.
